Laboratory results: PubChem BioAssay AID256 (DTP/NCI, 2004)
Inconclusive results and toxic doses are left out.

System: CD2F1 mice, L1210 leukemia ip, survival T/C
Experiment: NCI In Vivo Anticancer Drug Screen. Data for tumor model L1210 Leukemia (intraperitoneal) in CD2F1 (CDF1) mice
Conditions: higher = longer survival
How it was run: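 Tumor-bearing mice (transplanted tumor) were split into treated and vehicle control groups, and the measured endpoint of each treated group was divided by that of its vehicle controls.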

[1] = endpoint: mean survival time, dose: 100.0 mg/kg/injection, schedule: Q04DX003 (ip), vehicle: saline with Tween-80
[2] = endpoint: mean survival time, dose: 200.0 mg/kg/injection, schedule: Q04DX003 (ip), vehicle: saline with Tween-80
[3] = endpoint: mean survival time, dose: 400.0 mg/kg/injection, schedule: Q04DX003 (ip), vehicle: saline with Tween-80
[4] = endpoint: mean survival time, dose: 100.0 mg/kg/injection, schedule: Q01DX009 (ip), vehicle: saline with Tween-80
[5] = endpoint: mean survival time, dose: 200.0 mg/kg/injection, schedule: Q01DX009 (ip), vehicle: saline with Tween-80

For `c1ccc(NN=C(c2ccccc2)c2ccccc2)cc1`, the T/C [1] was 95 % of control, the T/C [2] was 95 % of control and the T/C [3] was 98 % of control.

With `Cc1ccc2[nH]c(-c3ccccc3)c(-c3ccccc3)c2c1` the T/C [1] was 102 % of control, the T/C [2] was 94 % of control and the T/C [3] was 96 % of control.

For `N\C([S-])=N/N=C\C(=N/N=C(\N)[S-])C(O)C(O)C(O)CO.[Ni+2]` (stereo unspecified), the T/C (endpoint: mean survival time, dose: 80.5 mg/kg/injection, schedule: Q01DX009 (ip), vehicle: saline with Tween-80) was 102 % of control and the T/C (endpoint: mean survival time, dose: 161.0 mg/kg/injection, schedule: Q01DX009 (ip), vehicle: saline with Tween-80) was 95 % of control.

In the case of `C=C1CC(C)(Cn2cnc3c(N)ncnc32)OC1=O` (stereo unspecified), the T/C (endpoint: median survival time, dose: 6.13 mg/kg/injection, schedule: Q01DX005 (ip), vehicle: water) is reported as 104 % of control, the T/C (endpoint: median survival time, dose: 12.25 mg/kg/injection, schedule: Q01DX005 (ip), vehicle: water) is reported as 101 % of control and the T/C (endpoint: median survival time, dose: 24.5 mg/kg/injection, schedule: Q01DX005 (ip), vehicle: water) is reported as 103 % of control. The T/C (endpoint: median survival time, dose: 49.0 mg/kg/injection, schedule: Q01DX005 (ip), vehicle: water) was 101 % of control.

For `O=c1c2ccccc2sc2c1ccc1c2ccc2c(=O)c3ccccc3sc21`, the T/C (endpoint: mean survival time, dose: 50.0 mg/kg/injection, schedule: Q01DX009 (ip), vehicle: Klucel (hydroxypropylcellulose) (HPC)) was 104 % of control, the T/C (endpoint: mean survival time, dose: 100.0 mg/kg/injection, schedule: Q01DX009 (ip), vehicle: Klucel (hydroxypropylcellulose) (HPC)) was 98 % of control and the T/C (endpoint: mean survival time, dose: 200.0 mg/kg/injection, schedule: Q01DX009 (ip), vehicle: Klucel (hydroxypropylcellulose) (HPC)) was 98 % of control.

With `O=P(NCCCO)(OCc1ccccc1)N(CCCl)CCCl` (stereo unspecified) the T/C (endpoint: mean survival time, dose: 15.63 mg/kg/injection, schedule: Q01DX001 (ip), vehicle: DMSO) was 101 % of control, the T/C (endpoint: mean survival time, dose: 31.25 mg/kg/injection, schedule: Q01DX001 (ip), vehicle: DMSO) was 98 % of control and the T/C (endpoint: mean survival time, dose: 62.5 mg/kg/injection, schedule: Q01DX001 (ip), vehicle: DMSO) was 101 % of control. For the same molecule, the T/C (endpoint: mean survival time, dose: 125.0 mg/kg/injection, schedule: Q01DX001 (ip), vehicle: DMSO) was 104 % of control, the T/C (endpoint: mean survival time, dose: 250.0 mg/kg/injection, schedule: Q01DX001 (ip), vehicle: DMSO) was 116 % of control and the T/C (endpoint: mean survival time, dose: 1000.0 mg/kg/injection, schedule: Q01DX001 (ip), vehicle: DMSO) was 173 % of control. The T/C (endpoint: mean survival time, dose: 1000.0 mg/kg/injection, schedule: Q01DX001 (ip), vehicle: other) was 178 % of control.

`CN=C(c1ccccc1)C1(O)CC2CCC1C2` (stereo unspecified) was tested, and the T/C (endpoint: mean survival time, dose: 100.0 mg/kg/injection, schedule: Q01DX001 (ip), vehicle: saline) was 101 % of control, the T/C (endpoint: mean survival time, dose: 200.0 mg/kg/injection, schedule: Q01DX001 (ip), vehicle: saline) was 98 % of control and the T/C (endpoint: mean survival time, dose: 400.0 mg/kg/injection, schedule: Q01DX001 (ip), vehicle: saline) was 101 % of control.

With `Cc1ccc([N+](=O)[O-])c(N)n1` the T/C [4] was 96 % of control, the T/C [1] was 98 % of control and the T/C [5] was 86 % of control. For the same molecule, the T/C [2] was 98 % of control and the T/C [3] was 100 % of control.

For `Cc1ccc(S(=O)(=O)N(C)c2ccc(I)cc2F)cc1`, the T/C [4] was 104 % of control, the T/C [5] was 95 % of control and the T/C (endpoint: mean survival time, dose: 400.0 mg/kg/injection, schedule: Q01DX009 (ip), vehicle: saline with Tween-80) was 101 % of control.

`Nc1n[nH]c(=S)s1` was tested, and the T/C (endpoint: mean survival time, dose: 100.0 mg/kg/injection, schedule: Q04DX002 (ip), vehicle: saline with Tween-80) was 107 % of control and the T/C (endpoint: mean survival time, dose: 200.0 mg/kg/injection, schedule: Q04DX002 (ip), vehicle: saline with Tween-80) was 96 % of control.

In the case of `Nc1cc(S(=O)(=O)O)cc2ccc(S(=O)(=O)O)cc12`, the T/C (endpoint: mean survival time, dose: 100.0 mg/kg/injection, schedule: Q01DX009 (ip), vehicle: saline) is reported as 106 % of control, the T/C (endpoint: mean survival time, dose: 100.0 mg/kg/injection, schedule: Q04DX003 (ip), vehicle: saline) is reported as 96 % of control and the T/C (endpoint: mean survival time, dose: 200.0 mg/kg/injection, schedule: Q01DX009 (ip), vehicle: saline) is reported as 95 % of control. The T/C (endpoint: mean survival time, dose: 200.0 mg/kg/injection, schedule: Q04DX003 (ip), vehicle: saline) was 92 % of control, the T/C (endpoint: mean survival time, dose: 400.0 mg/kg/injection, schedule: Q01DX009 (ip), vehicle: saline) was 92 % of control and the T/C (endpoint: mean survival time, dose: 400.0 mg/kg/injection, schedule: Q04DX003 (ip), vehicle: saline) was 117 % of control.
